Columns and labels:
[1] = system: testicular steriodogenosis; assay: Inhibitory activity on testicular steroidogenesis in a patient with prostate cancer; type: in vivo, human; conditions: intranasal 500 μg twice a day
Text: The results are reported in the graphs of sheet 2 of the Figures.

[2] = system: testicular steroidogensis; assay: Inhibitory activity against testicular steroidogenesis in men in good health, single intranasal dose; type: in vivo; conditions: human, single intranasal dose 500 μg
Protocol: The said product was administered intranasally at a dose of 500 μg in a few drops of distilled water at 8 A.M. on the third day of the test. For 2 days prior to the treatment and for 6 days after the treatment, samples of blood were taken daily at 8 A.M., 3 P.M. and 10 P.M. On the day of administration of the LH-RH agonist, blood samples were taken at 11 A.M. and 6 P.M.
The seric concentrations of LH and FSH were measured by radioimmuno-logic dosages with double antibodies and the antibodies for measuring LH and FSH were furnished by the National Pituitary Agency of N.I.H. in Bethesda, Md. The seric concentrations of steroids was measured by radioimmuno-logic dosages in which one ml of serum was extracted with ether and the steroids were separated on a LH-20 column before measuring with radioimmuno-logic dosages. The radioimmuno-logic dosage results were determined by a program derived from model II of Rodbard et al [Second Karolinska Symposium on Research Methods in Reproductive Endocrinology, Diezfalusky Editor, Copenhague (1970), p. 79-103]. The statistical significance was determined by the "multiple level test" of Duncan-Kramer [Kramer, Biometrics, Vol 12 (1956), p. 307]. The results are shown in the FIGS. 1A to 1H filed herewith.

ovarian steroidogenosis = assay: Inhibitory activity on ovarian steroidogenesis in women; type: in vivo; conditions: for reduction of seric levels of progesterone as compared to the controls: typical subject (FIGS. 3A-3D)
Protocol: The inhibitory activity of D Ser (Tbu)^6 or Gly^10 LH-RH ethylamide on ovarian steroidogenosis in women was determined on 6 women aged 26 to 35 years with normal and regular menstrual cycles and without prior endocrinal or gynecological problems. […] […] Daily blood samples were taken between 4 and 6 P.M. to measure seric levels of LH, FSH, progesterone and estradiol which were determined by radioimmuno-logic tests with double antibodies. The antibodies to measure LH and FSH were furnished by the National Pituitory Agency of N.I.H. of Bethesda, Md.
Estradiol and progesterone were measured with highly specific antibodies developed against 7-(O-carboxymethyl)-oxime of estradiol and 12-(O-carboxymethyl)-oxime of progesterone, respectively [3H] 17β-estradiol and ^125 I-progesterone-12-[0-carboxymethyl)-oxime]used as tracers. The serum was extracted with benzene and the steroids were separated with a LH 20 column before the determination. The radioimmunological results were exploited by the program derived from model II of Rodbard and Lewald as in Example 1 and the statistical significance was measured by the multiple level test of Ducan-Kramer of Example 1. The results are shown in the graphs of sheets 1 to 16 of the Figures.

**Q.** With CCNC(=O)[C@@H]1CCCN1C(=O)[C@H](CCCNC(=N)N)NC(=O)[C@H](CC(C)C)NC(=O)[C@@H](COC(C)(C)C)NC(=O)[C@H](Cc1ccc(O)cc1)NC(=O)[C@H](CO)NC(=O)[C@H](Cc1c[nH]c2ccccc12)NC(=O)[C@H](Cc1c[nH]cn1)NC(=O)[C@@H]1CCC(=O)N1 [D Ser (Tbu)^6 of Gly^10 LH-RH ethylamide] as the molecule, how does the “androgenic steroids, plasmatic level” value [1] read?
**A.** diminution

**Q.** And the level of testosterone ([1]; two weeks of treatment)?
**A.** stabilized at a very low level

**Q.** And the “duration of the lessening of cyclicity and drop of seric levels of testicular steroids” value [2]?
**A.** 3 days

**Q.** And the “level of seric progesterone, course” value (ovarian steroidogenosis; 2 cycles of treatment (FIGS. 4A-4F))?
**A.** accelerated diminution

**Q.** What about the “level of progesterone, % of control values (pretreatment cycles = 100%)” value (ovarian steroidogenosis; 12 cycles of post-treatment) of the same molecule?
**A.** 99%

**Q.** What about the “level of progesterone, % of control values (pretreatment cycles = 100%)” value (ovarian steroidogenosis; 12 cycles of treatment) of the same molecule?
**A.** 46%

**Q.** And the “level of progesterone reduced as compared to the controls” value (ovarian steroidogenosis; all 12 treatment cycles (FIGS. 5A-5L), scale 13 to 127%)?
**A.** 46%

**Q.** What about the “reduction of seric levels of progesterone as compared to the controls” value (ovarian steroidogenosis; first of the 2 cycles of treatment, intranasal 500 μg at 8 A.M. and 5 P.M. of one day) of the same molecule?
**A.** 13%

**Q.** What about the “reduction of seric levels of progesterone as compared to the controls” value (ovarian steroidogenosis; second of the 2 cycles of treatment) of the same molecule?
**A.** 34%
